Data published in patent publication US5939098A, “Cancer treatment with temozolomide” (Schering Corporation, priority 1997, dated 1999).

What was measured:
[1] = side effects of temozolomide administration; assay type: in vivo, patient; settings: can be alleviated by an anti-emetic
Description: It is preferred that the anti-emetic Ondansetron be given p.o. in a dose of about 8 mg about 30 minutes before temozolomide administration. Of course other anti-emetics such as Hasaldol, Benadryl, and Ativan may also be used as needed.

[2] = set-up: species or system patient; settings: human, in vivo
Description: Prior to this invention it was generally believed that administering temozolomide to a patient having food in their stomach or to a patient who consumed food too soon before or after administering of the temozolomide would interfere with the bioiavailability of the temozolomide. A fasting of about 8 hours, before administering of temozolomide and 4 hours after receiving temozolomide was believed necessary. Since two twelve-hour fasting periods per day would obviously be unacceptable, it was believed that temozolomide could be administered a maximum of once per day. […] Therefore long fasting periods before and after administration of temozolomide are not necessary. Dosing with temozolomide more than once per day may improve the effectiveness of the treatment. This is so because increasing the frequency of dosing may deplete the O^6 -aklylguanine DNA alkyltransferase more effectively and maintain the depletion of this repair enzyme, resulting therefore in better effectiveness of the drug.

[3] = tested on: advanced melanoma; settings: patients having advanced melanoma; Newlands ES, et al. Br J Cancer 65 (2), 1992; cited from earlier work
[4] = tested on: advanced melanoma; settings: patients with advanced melanoma; Journal of Clinical Oncology, Vol 13, No. 4, 1995, pp 910-913; cited from earlier work

For `Cn1nnc2c(C(N)=O)ncn2c1=O` [temozolomide, 3,4-dihydro-3-methyl-4-oxoimidazo-[5,1-d]1,2,3,4-tetrazin-8-carboximide], the “common, but tolerable side effect” value [1] is listed as “nausea and vomiting”, the “Area Under Curve (AUC) for those fed as % of AUC for those fasted” value [2] is listed as “about 90%” and the “clinical responses achieved, % of patients” value [3] is listed as 17%. The “clinical response achieved, % of patients” value [4] was 21%.
